In patent publication US20250177359A1, “COMPOUNDS FOR USE IN THE TREATMENT OF CANCER AND INFLAMMATORY CONDITIONS” (priority 2022, published 2025):

Target: T1, PARP10 (Homo sapiens, UniProt Q53GL7)
T1 construct: made in house
T1 sequence (Q53GL7 1-1025): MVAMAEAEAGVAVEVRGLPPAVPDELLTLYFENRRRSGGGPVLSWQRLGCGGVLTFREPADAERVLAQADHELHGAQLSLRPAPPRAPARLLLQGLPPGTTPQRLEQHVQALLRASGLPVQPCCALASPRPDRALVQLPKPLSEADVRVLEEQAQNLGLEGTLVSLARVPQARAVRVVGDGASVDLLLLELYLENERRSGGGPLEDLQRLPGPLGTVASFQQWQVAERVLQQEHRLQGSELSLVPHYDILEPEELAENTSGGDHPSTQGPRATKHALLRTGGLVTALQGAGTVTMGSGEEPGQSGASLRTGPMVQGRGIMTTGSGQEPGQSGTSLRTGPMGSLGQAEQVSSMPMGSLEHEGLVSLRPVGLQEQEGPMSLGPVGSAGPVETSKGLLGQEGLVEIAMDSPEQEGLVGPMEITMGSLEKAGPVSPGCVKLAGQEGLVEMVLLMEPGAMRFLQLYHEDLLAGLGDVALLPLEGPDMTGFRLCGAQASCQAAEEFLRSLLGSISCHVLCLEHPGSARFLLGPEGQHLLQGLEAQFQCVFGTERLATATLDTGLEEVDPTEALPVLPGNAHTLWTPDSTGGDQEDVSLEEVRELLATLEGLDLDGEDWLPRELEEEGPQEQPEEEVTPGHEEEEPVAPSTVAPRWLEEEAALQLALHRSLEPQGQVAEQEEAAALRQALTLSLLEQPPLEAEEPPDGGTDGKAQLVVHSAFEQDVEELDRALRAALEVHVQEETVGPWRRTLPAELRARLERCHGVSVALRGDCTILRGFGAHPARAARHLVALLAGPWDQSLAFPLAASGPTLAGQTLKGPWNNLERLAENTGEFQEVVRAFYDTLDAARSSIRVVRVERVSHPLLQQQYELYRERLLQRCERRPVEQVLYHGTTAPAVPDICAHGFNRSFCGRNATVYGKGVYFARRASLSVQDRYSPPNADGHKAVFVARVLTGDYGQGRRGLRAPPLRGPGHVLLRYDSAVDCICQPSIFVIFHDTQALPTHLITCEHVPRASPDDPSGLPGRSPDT
Test: Activity assay measuring NAD+ consumption, PARP10 (Tables 1-3)
Format: biochemical
Conditions: PARP10 IC50, Tables 1-3 assay

Nc1nnc2sc3cc(O)ccc3n12 [Compound 109, 3-Amino[1,2,4]triazolo[3,4-b][1,3]benzothiazol-7-ol]
IC50: 220 nM
